The text below walks through data of patent publication US20090209536A1, “AMINOQUINAZOLINE CANNABINOID RECEPTOR MODULATORS FOR TREATMENT OF DISEASE” (KALYPSYS, INC., priority 2007, published 2009).

Structures are written as SMILES. Where two headings read alike, the source gives them in different places.

Assay [1] deals with T1, human cannabinoid receptor type 2 (Homo sapiens, UniProt P34972).
T1 construct: expressed in transfected cells; membrane preparation
The assay can be described thus: Human CB2 Radioligand Binding Assay. Conditions: membranes from stably transfected CHO CB2 cells. In outline:
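Filtration competition binding on membranes from CHO cells stably expressing human CB2, with [3H]CP-55,940 at its lot-specific Kd, in 50 mM Tris-HCl pH 7.4, EGTA, MgCl2, 5 mg/ml BSA, 1% DMSO; 90 min at 30° C. Compounds at 10 uM single point or dose-response; bound radioactivity by scintillation, 100 nM CP-55,940 as 100% efficacy.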

The target in assay [2] is T2, human cannabinoid receptor type 1 (Homo sapiens, UniProt P21554).
T2 construct: purchased Perkin Elmer RBHCB1M; host or cells: HEK 293 EBNA cells
Kind of assay: Human CB1 Radioligand Binding Assay (basis of selectivity, CB2 vs. CB1). Conditions: CB1: HEK 293 EBNA cells expressing human CB1; CB2: CHO CB2 membranes. As for the experimental part: 2. Human CB1 Radioligand Binding Assay
The incubation buffer was composed of 50 mM Tris-HCl pH 7.4, 2.5 mM EDTA, 5 mM MgCl2, 5.0 mg/ml fatty acid free BSA and the wash buffer was composed of 50 mM Tris-HCl pH 7.4, 2.5 mM EDTA, 5 mM MgCl2, 0.5 mg/ml fatty acid free BSA.

Setting [3] is: competition with [3H] CP-55,940, read-out: CB2 Ligand Binding Asssay EC50.

T1 sequence (P34972 whole entry): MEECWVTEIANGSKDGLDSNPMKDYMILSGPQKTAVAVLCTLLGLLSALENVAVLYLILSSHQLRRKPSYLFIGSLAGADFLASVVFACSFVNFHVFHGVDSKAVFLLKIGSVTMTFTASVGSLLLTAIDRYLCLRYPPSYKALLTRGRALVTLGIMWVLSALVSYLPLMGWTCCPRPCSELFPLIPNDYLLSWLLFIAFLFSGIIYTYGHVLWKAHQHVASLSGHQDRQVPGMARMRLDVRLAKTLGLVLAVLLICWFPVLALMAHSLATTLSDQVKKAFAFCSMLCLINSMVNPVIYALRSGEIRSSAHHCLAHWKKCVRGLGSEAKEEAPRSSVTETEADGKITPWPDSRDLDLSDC
T2 sequence (P21554 whole entry): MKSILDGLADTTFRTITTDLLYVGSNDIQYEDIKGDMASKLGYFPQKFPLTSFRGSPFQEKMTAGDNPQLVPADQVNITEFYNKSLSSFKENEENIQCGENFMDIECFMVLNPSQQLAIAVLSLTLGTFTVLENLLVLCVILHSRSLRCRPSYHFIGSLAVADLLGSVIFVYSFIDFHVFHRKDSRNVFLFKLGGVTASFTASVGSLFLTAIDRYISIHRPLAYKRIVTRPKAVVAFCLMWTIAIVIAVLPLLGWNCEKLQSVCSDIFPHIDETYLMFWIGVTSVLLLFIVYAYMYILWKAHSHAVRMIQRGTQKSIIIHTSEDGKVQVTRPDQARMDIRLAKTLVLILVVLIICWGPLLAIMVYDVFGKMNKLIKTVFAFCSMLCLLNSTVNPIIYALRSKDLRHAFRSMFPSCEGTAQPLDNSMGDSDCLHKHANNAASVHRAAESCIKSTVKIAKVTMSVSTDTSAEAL

For `COC(=O)c1ccc2nc(-c3ccccc3Cl)nc(Nc3cccc(OC(F)(F)F)c3)c2c1` [Example 326, Methyl 2-(2-chlorophenyl)-4-(3-(trifluoromethoxy)phenylamino)quinazoline-6-carboxylate], the EC50 in assay [1] (setting [3]) is above 1000 nM. In addition, the “Selectivity, CB2 vs. CB1” value in assay [2] is reported as “− (− indicates ≦ 10−fold)”.
The like results for `c1ccc(Cc2nc(N3CCCCC3)c3ccccc3n2)cc1` [Example 339, 2-Benzyl-4-(piperidin-1-yl)quinazoline] were, in that order, above 1000 nM and “− (− indicates ≦ 10−fold)”.
For `CCCNC(=O)N1CCN(c2nc(-c3ccccc3Cl)nc3cccc(Cl)c23)CC1` [Example 284, 4-(5-Chloro-2-(2-chlorophenyl)quinazolin-4-yl)-N-propylpiperazine-1-carboxamide], the EC50 in assay [1] (setting [3]) is above 1000 nM. For the same compound, in assay [2], the “Selectivity, CB2 vs. CB1” value is recorded as “− (− indicates ≦ 10−fold)”.
Turning to `COc1ccc(CNC(=O)c2ccc3nc(-c4ccccc4Cl)nc(N4CCC(C)CC4)c3c2)cc1` [Example 313, 2-(2-Chlorophenyl)-N-(4-methoxybenzyl)-4-(4-methylpiperidin-1-yl)quinazoline-6-carboxamide], the EC50 in assay [1] (setting [3]) was below 1000 nM. The “Selectivity, CB2 vs. CB1” value in assay [2] is listed as “− (− indicates ≦ 10−fold)”.
Take `CC(C)(C)NC(=O)N1CCN(c2nc(-c3ccccc3Cl)nc3ccccc23)CC1` [Example 89, N-tert-Butyl-4-(2-(2-chlorophenyl)quinazolin-4-yl)piperazine-1-carboxamide]: the half-maximal effective concentration (EC50) in assay [1] (setting [3]) is above 1000 nM. Also, the “Selectivity, CB2 vs. CB1” value in assay [2] was “− (− indicates ≦ 10−fold)”.
`CCCNC(=O)N1CCN(c2nc(-c3ccccc3Cl)nc3ccccc23)CC1` [Example 91, 4-(2-(2-Chlorophenyl)quinazolin-4-yl)-N-propylpiperazine-1-carboxamide] had an EC50 in assay [1] (CB2 Ligand Binding Asssay EC50, competition with [3H] CP-55,940) above 1000 nM. Moreover, the “Selectivity, CB2 vs. CB1” value in assay [2] is “− (− indicates ≦ 10−fold)”.
On to `CN1CCN(c2nc(-c3ccc(Cl)cc3)nc3ccccc23)CC1` [Example 122, 2-(4-Chlorophenyl)-4-(4-methylpiperazin-1-yl)quinazoline], for which the EC50 in assay [1] (setting [3]) is below 1000 nM. The “Selectivity, CB2 vs. CB1” value in assay [2] is given as “+ (+ indicates > 10−fold)”.
As for `CC(=O)N1CCCN(c2nc(-c3ccccc3Cl)nc3ccccc23)CC1` [Example 334, 1-(4-(2-(2-Chlorophenyl)quinazolin-4-yl)-1,4-diazepan-1-yl)ethanone], in assay [1] (setting [3]), the EC50 is below 1000 nM. Also, the “Selectivity, CB2 vs. CB1” value in assay [2] is reported as “− (− indicates ≦ 10−fold)”.
The like results for `COc1ccc2nc(C3CCCCC3)nc(N3CCCC3)c2c1` [Example 162, 2-Cyclohexyl-6-methoxy-4-(pyrrolidin-1-yl)quinazoline] were, in that order, below 1000 nM and “+ (+ indicates > 10−fold)”.
The corresponding values for `CC(=O)N1CCN(c2nc(-c3ccccc3F)nc3cccc(F)c23)CC1` [Example 280, 1-(4-(5-Fluoro-2-(2-fluorophenyl)quinazolin-4-yl)piperazin-1-yl)ethanone] are below 1000 nM and “+ (+ indicates > 10−fold)”.
As to `COc1ccc2c(N3CCN(C)CC3)nc(C3CCCCC3)nc2c1` [Example 158, 2-Cyclohexyl-7-methoxy-4-(4-methylpiperazin-1-yl)quinazoline], the EC50 in assay [1] (setting [3]) was above 1000 nM. In assay [2], the “Selectivity, CB2 vs. CB1” value was “− (− indicates ≦ 10−fold)”.
The corresponding values for `O=C1CCCN1c1nc(-c2ccccc2Cl)nc2ccccc12` [Example 70, 1-(2-(2-Chlorophenyl)quinazolin-4-yl)pyrrolidin-2-one] are above 1000 nM and “− (− indicates ≦ 10−fold)”.
In the case of `CCN1CCN(c2nc(-c3ccccc3Cl)nc3ccccc23)C(=O)C1` [Example 73, 1-(2-(2-Chlorophenyl)quinazolin-4-yl)-4-ethylpiperazin-2-one], in assay [1] (setting [3]), the EC50 was above 1000 nM. Further, in assay [2], the “Selectivity, CB2 vs. CB1” value is “− (− indicates ≦ 10−fold)”.
The corresponding values for `Clc1ccccc1-c1nc(N2CCCC2)c2cc(Br)ccc2n1` [Example 184, 6-Bromo-2-(2-chlorophenyl)-4-(pyrrolidin-1-yl)quinazoline] are below 1000 nM and “− (− indicates ≦ 10−fold)”.
`CCC(=O)N1CCN(c2nc(-c3ccccc3Cl)nc3cccc(Cl)c23)CC1` [Example 260, 1-(4-(5-Chloro-2-(2-chlorophenyl)quinazolin-4-yl)piperazin-1-yl)propan-1-one]: the EC50 in assay [1] (setting [3]) was below 1000 nM. Besides, in assay [2], the “Selectivity, CB2 vs. CB1” value is listed as “+ (+ indicates > 10−fold)”.
In the case of `COc1ccc2nc(-c3ccccc3F)nc(N3CCCC3)c2c1` [Example 276, 2-(2-Fluorophenyl)-6-methoxy-4-(pyrrolidin-1-yl)quinazoline], in assay [1] (setting [3]), the EC50 is above 1000 nM. For the same compound, the “Selectivity, CB2 vs. CB1” value in assay [2] was “− (− indicates ≦ 10−fold)”.
The like results for `CCOC(=O)N1CCN(c2nc(-c3ccccc3Cl)nc3cccc(F)c23)CC1` [Example 247, Ethyl 4-(2-(2-chlorophenyl)-5-fluoroquinazolin-4-yl)piperazine-1-carboxylate] were, in that order, below 1000 nM and “+ (+ indicates > 10−fold)”.
Take `CC(C)(C)c1ccc2nc(-c3ccccc3Cl)nc(N3CCCCC3)c2c1` [Example 170, 6-tert-Butyl-2-(2-chlorophenyl)-4-(piperidin-1-yl)quinazoline]: the EC50 in assay [1] (setting [3]) is below 1000 nM. Further, the “Selectivity, CB2 vs. CB1” value in assay [2] was “+ (+ indicates > 10−fold)”.
The corresponding values for `CN(Cc1ccccc1)c1nc(-c2ccc(F)c(F)c2)nc2ccccc12` [Example 17, N-benzyl-2-(3,4-difluorophenyl)-N-methylquinazolin-4-amine] are above 1000 nM and “− (− indicates ≦ 10−fold)”.
The corresponding values for `CNC(=O)N1CCN(c2nc(-c3ccccc3Cl)nc3ccccc23)CC1` [Example 88, 4-(2-(2-Chlorophenyl)quinazolin-4-yl)-N-methylpiperazine-1-carboxamide] are above 1000 nM and “− (− indicates ≦ 10−fold)”.
In the case of `COc1ccc2nc(-c3ccc(C(C)(C)C)cc3)nc(N3CCN(C(C)=O)CC3)c2c1` [Example 249, 1-(4-(2-(4-tert-Butylphenyl)-6-methoxyquinazolin-4-yl)piperazin-1-yl)ethanone], in assay [1] (setting [3]), the EC50 was below 1000 nM. The “Selectivity, CB2 vs. CB1” value in assay [2] was “+ (+ indicates > 10−fold)”.
The corresponding values for `CC(=O)N1CCN(c2nc(-c3cccc(F)c3)nc3ccccc23)CC1` [Example 154, 1-(4-(2-(3-Fluorophenyl)quinazolin-4-yl)piperazin-1-yl)ethanone] are below 1000 nM and “+ (+ indicates > 10−fold)”.
The like results for `Clc1ccccc1Nc1nc(C2CCCCC2)nc2ccccc12` [Example 37, N-(2-Chlorophenyl)-2-cyclohexylquinazolin-4-amine] were, in that order, above 1000 nM and “− (− indicates ≦ 10−fold)”.
The like results for `COc1ccc2nc(C3CCCCC3)nc(N3CCN(C(C)=O)CC3)c2c1` [Example 186, 1-(4-(2-Cyclohexyl-6-methoxyquinazolin-4-yl)piperazin-1-yl)ethanone] were, in that order, below 1000 nM and “− (− indicates ≦ 10−fold)”.
Regarding `COC(=O)N1CCN(c2nc(-c3ccccc3Cl)nc3ccccc23)CC1` [Example 226, Methyl 4-(2-(2-chlorophenyl)quinazolin-4-yl)piperazine-1-carboxylate], the concentration for a half-maximal effect (EC50) in assay [1] (setting [3]) is below 1000 nM. Moreover, the “Selectivity, CB2 vs. CB1” value in assay [2] is “+ (+ indicates > 10−fold)”.
